In patent publication US20250171457A1, “NITROGEN-CONTAINING HETEROCYCLIC COMPOUND HAVING NRF2 ACTIVATION EFFECT” (CHUGAI SEIYAKU KABUSHIKI KAISHA, priority 2022, published 2025):

The compounds below were run on Nrf2 transcriptional activity (pARE-Luc reporter) in HepG2 cells (assay: In vitro Nrf2 transcriptional activity measurement by ARE-dependent reporter assay in HepG2 cell). Settings: Homo sapiens; HepG2 cells transfected with pARE-Luc, 4 hours at 37° C.; luciferase activity of Example 1-54 or Example 17-23 at 3.75 μM defined as 100%.
Assay type: cell-based, human
In short: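 Luminescence readout (Bright-Glo) after 4 h, 37° C compound exposure of HepG2 cells carrying the ARE-luciferase vector pGL4.37. Each well converted to % response versus reference compound at 3.75 μM, and EC50 derived from dose-response curves.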

Cn1nnc2c(-c3cc(Cl)c(C(=O)N4COc5c(cccc5-c5cc(N6C7CCC6COC7)c(C(=O)O)cc5F)C4)c(Cl)c3)ccnc21 [Compound 3-19, 4-[3-[2,6-Dichloro-4-(3-methyltriazolo[4,5-b]pyridin-7-yl)benzoyl]-2,4-dihydro-1,3-benzoxazin-8-yl]-5-fluoro-2-(3-oxa-8-azabicyclo[3.2.1]octan-8-yl)benzoic acid] and Cn1cc(-c2cc(Cl)c(C(=O)N3COc4c(cccc4-c4cc(N5C6CCC5COC6)c(C(=O)O)cc4F)C3)c(Cl)c2)c2nccnc21 [Compound 3-21, 4-[3-[2,6-Dichloro-4-(5-methylpyrrolo[2,3-b]pyrazin-7-yl)benzoyl]-2,4-dihydro-1,3-benzoxazin-8-yl]-5-fluoro-2-(3-oxa-8-azabicyclo[3.2.1]octan-8-yl)benzoic acid] are within 1.5-fold of each other in EC50: 8 nM for the first, 6.4 nM for the second.

Cn1nc2cc(-c3cc(Cl)c(C(=O)N4COc5c(cccc5-c5cc(N6C7CCC6COC7)c(C(=O)O)cc5F)C4)c(Cl)c3)cnc2n1 [Compound 3-20, 4-[3-[2,6-Dichloro-4-(2-methyltriazolo[4,5-b]pyridin-6-yl)benzoyl]-2,4-dihydro-1,3-benzoxazin-8-yl]-5-fluoro-2-(3-oxa-8-azabicyclo[3.2.1]octan-8-yl)benzoic acid] and COc1ncc(-c2cc(Cl)c(C(=O)N3COc4c(cccc4-c4cc(N5C6CCC5COC6)c(C(=O)O)cc4F)C3)c(Cl)c2)c2nn(C)nc12 [Compound 3-26, 4-[3-[2,6-Dichloro-4-(4-methoxy-2-methyltriazolo[4,5-c]pyridin-7-yl)benzoyl]-2,4-dihydro-1,3-benzoxazin-8-yl]-5-fluoro-2-(3-oxa-8-azabicyclo[3.2.1]octan-8-yl)benzoic acid] are within 1.5-fold of each other in EC50: 9 nM for the first, 9.8 nM for the second.

First: O=C(O)c1cc(F)c(-c2cccc3c2OCN(C(=O)c2c(Cl)cc(-c4cnc5n4CCC5)cc2Cl)C3)cc1N1C2CCC1COC2 [Compound 3-22, 4-[3-[2,6-Dichloro-4-(6,7-dihydro-5H-pyrrolo[1,2-a]imidazol-3-yl)benzoyl]-2,4-dihydro-1,3-benzoxazin-8-yl]-5-fluoro-2-(3-oxa-8-azabicyclo[3.2.1]octan-8-yl)benzoic acid]
Second: O=C(O)c1cc(F)c(-c2cccc3c2OCN(C(=O)c2c(Cl)cc(-c4cncc5ccoc45)cc2Cl)C3)cc1N1C2CCC1COC2 [Compound 3-25, 4-[3-(2,6-Dichloro-4-furo[3,2-c]pyridin-7-ylbenzoyl)-2,4-dihydro-1,3-benzoxazin-8-yl]-5-fluoro-2-(3-oxa-8-azabicyclo[3.2.1]octan-8-yl)benzoic acid]
The EC50 of the first is 2.7-fold higher: 21 nM for the first, 7.7 nM for the second. The second is the more potent here.

O=C(O)c1cc(F)c(-c2cccc3c2OCN(C(=O)c2c(Cl)cc(-c4cc5ccccc5o4)cc2Cl)C3)cc1N1C2CCC1COC2 [Compound 3-23, 4-[3-[4-(1-Benzofuran-2-yl)-2,6-dichlorobenzoyl]-2,4-dihydro-1,3-benzoxazin-8-yl]-5-fluoro-2-(3-oxa-8-azabicyclo[3.2.1]octan-8-yl)benzoic acid] and O=C(O)c1cc(F)c(-c2cccc3c2OCN(C(=O)c2c(Cl)cc(-c4cccc5ccoc45)cc2Cl)C3)cc1N1C2CCC1COC2 [Compound 3-24, 4-[3-[4-(1-Benzofuran-7-yl)-2,6-dichlorobenzoyl]-2,4-dihydro-1,3-benzoxazin-8-yl]-5-fluoro-2-(3-oxa-8-azabicyclo[3.2.1]octan-8-yl)benzoic acid] are within 1.5-fold of each other in EC50: 21 nM for the first, 31 nM for the second.

First: COc1ncc(-c2cc(Cl)c(C(=O)N3COc4c(cccc4-c4cc(N5C6CCC5COC6)c(C(=O)O)cc4F)C3)c(Cl)c2)c2nnn(C)c12 [Compound 3-27, 4-[3-[2,6-Dichloro-4-(4-methoxy-3-methyltriazolo[4,5-c]pyridin-7-yl)benzoyl]-2,4-dihydro-1,3-benzoxazin-8-yl]-5-fluoro-2-(3-oxa-8-azabicyclo[3.2.1]octan-8-yl)benzoic acid]
Second: COCCn1cc(-c2cc(Cl)c(C(=O)N3COc4c(cccc4-c4ccc(C(=O)O)c(N5CCOCC5)c4)C3)c(Cl)c2)cn1 [Compound 3-28, 4-[3-[2,6-Dichloro-4-[1-(2-methoxyethyl)pyrazol-4-yl]benzoyl]-2,4-dihydro-1,3-benzoxazin-8-yl]-2-morpholin-4-ylbenzoic acid]
The EC50 of the first is 4.2-fold higher: 8.8 nM for the first, 2.1 nM for the second.
